Laboratory results as given in paper PMC7615792 (ACS catalysis, 2023).

Assays:
[1] = biological target: T1, AtzB_Hom_Hal (Mangrovimicrobium sediminis, UniProt A0A4Z0M5D5); test: direct photometric steady-state assay, spectrophotometer; type: biochemical; settings: 50 mM potassium phosphate pH 7.5, 25 °C
T1 sequence (A0A4Z0M5D5 1-465): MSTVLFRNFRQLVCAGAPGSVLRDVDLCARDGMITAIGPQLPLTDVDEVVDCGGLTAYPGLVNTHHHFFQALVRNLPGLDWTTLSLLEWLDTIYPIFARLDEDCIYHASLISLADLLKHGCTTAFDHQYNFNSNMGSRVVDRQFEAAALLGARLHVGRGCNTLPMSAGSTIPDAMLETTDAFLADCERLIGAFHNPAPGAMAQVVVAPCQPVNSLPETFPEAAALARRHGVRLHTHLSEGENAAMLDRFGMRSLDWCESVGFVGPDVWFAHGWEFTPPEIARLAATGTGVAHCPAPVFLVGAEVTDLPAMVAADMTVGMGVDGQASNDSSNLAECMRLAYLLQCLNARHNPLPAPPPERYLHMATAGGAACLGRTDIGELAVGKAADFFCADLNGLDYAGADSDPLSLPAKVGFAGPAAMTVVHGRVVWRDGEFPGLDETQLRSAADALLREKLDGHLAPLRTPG

[2] = biological target: T2, AtzB (Pseudomonas sp. ADP, UniProt P95442); test: as above; type: biochemical; settings: 50 mM potassium phosphate pH 7.5, 25 °C
T2 sequence (P95442 1-481): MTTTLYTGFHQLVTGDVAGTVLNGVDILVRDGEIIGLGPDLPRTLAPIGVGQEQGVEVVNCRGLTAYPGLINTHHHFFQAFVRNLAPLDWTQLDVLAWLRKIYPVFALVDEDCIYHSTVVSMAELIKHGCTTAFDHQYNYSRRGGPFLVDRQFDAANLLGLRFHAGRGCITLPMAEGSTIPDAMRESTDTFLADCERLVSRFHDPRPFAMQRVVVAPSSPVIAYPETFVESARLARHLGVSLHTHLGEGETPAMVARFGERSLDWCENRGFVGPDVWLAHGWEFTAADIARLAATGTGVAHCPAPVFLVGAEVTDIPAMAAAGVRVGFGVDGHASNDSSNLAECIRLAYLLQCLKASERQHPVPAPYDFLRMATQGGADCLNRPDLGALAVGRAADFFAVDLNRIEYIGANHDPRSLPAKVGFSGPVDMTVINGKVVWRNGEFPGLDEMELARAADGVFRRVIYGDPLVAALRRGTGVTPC

Row | SMILES | KM [1] | kcat/KM [2]
1 | CCNc1nc(O)nc(NC(C)C)n1 [II, hydroxyatrazine] | promiscuous hydroxyatrazine hydrolase activities of AtzB_Hom_Hal and AtzB_Hom_Pleo | 
2 | Nc1nc2[nH]cnc2c(=O)[nH]1 [guanine] |  | represents an increase of about three orders of magnitude compared to AtzB
